Laboratory results from ChEMBL document CHEMBL3885881, “DrugMatrix”.

Organism: Rattus norvegicus
Test: DrugMatrix - Regimen: Daily Repeat
Format: toxicity, organism-based, Sprague-Dawley
Design: regimen Daily Repeat, gender Male, age 6-8 weeks
Conditions: in vivo, po, route oral GAVAGE, vehicle 100 % WATER; for ABSOLUTE BASOPHIL / ABSOLUTE EOSINOPHIL / ABSOLUTE LYMPHOCYTE / ABSOLUTE MONOCYTE / ABSOLUTE SEGMENTED NEUTROPHIL / BASOPHIL / EOSINOPHIL / ERYTHROCYTE COUNT / HEMATOCRIT / HEMOGLOBIN / LEUKOCYTE COUNT / LYMPHOCYTE / MEAN CORPUSCULAR HEMOGLOBIN / MEAN CORPUSCULAR HEMOGLOBIN CONCENTRATION / MEAN CORPUSCULAR VOLUME / MONOCYTE / NEUTROPHIL / NUCLEATED RED BLOOD CELLS / PLATELET COUNT: tissue Blood; for ALANINE AMINOTRANSFERASE / ALBUMIN / ALKALINE PHOSPHATASE / ASPARTATE AMINOTRANSFERASE / BLOOD UREA NITROGEN / CARBON DIOXIDE / CHLORIDE / CHOLESTEROL / CREATINE PHOSPHOKINASE / CREATININE / GLUCOSE / LACTATE DEHYDROGENASE / LIPASE / PHOSPHORUS / POTASSIUM / SODIUM / TOTAL BILIRUBIN / TOTAL PROTEIN / URIC ACID: tissue Plasma
[1] = 100 mg/kg, 120 h, dose level Low, time 5 day
[2] = 750 mg/kg, 72 h, dose level High, time 3 day
[3] = 750 mg/kg, 120 h, dose level High, time 5 day

NC(=O)c1cccnc1 [NIACINAMIDE]
ABSOLUTE BASOPHIL [1]: 0 CELLS/uL
ABSOLUTE EOSINOPHIL [1]: 0 CELLS/uL
ABSOLUTE LYMPHOCYTE [1]: 16541 CELLS/uL
ABSOLUTE MONOCYTE [1]: 560 CELLS/uL
ABSOLUTE SEGMENTED NEUTROPHIL [1]: 1799 CELLS/uL
BASOPHIL [1]: 0%
EOSINOPHIL [1]: 0%
ERYTHROCYTE COUNT [1]: 5.76 x10E6/uL
HEMATOCRIT [1]: 36.2%
HEMOGLOBIN [1]: 13.57 G/DL
LEUKOCYTE COUNT [1]: 18.9 x10E3/uL
LYMPHOCYTE [1]: 87.67%
MEAN CORPUSCULAR HEMOGLOBIN [1]: 23.57 pg
MEAN CORPUSCULAR HEMOGLOBIN CONCENTRATION [1]: 37.47 G/DL
MEAN CORPUSCULAR VOLUME [1]: 62.9 fL
MONOCYTE [1]: 3%
NEUTROPHIL [1]: 9.33%
NUCLEATED RED BLOOD CELLS [1]: 0 /100WBC
PLATELET COUNT [1]: 1257.67 x10E3/uL
ALANINE AMINOTRANSFERASE [1]: 69.67 u/L
ALBUMIN [1]: 4.27 G/DL
ALKALINE PHOSPHATASE [1]: 376.67 u/L
ASPARTATE AMINOTRANSFERASE [1]: 99.33 u/L
BLOOD UREA NITROGEN [1]: 17 mg/dL
CARBON DIOXIDE [1]: 24.33 mmol/L
CHLORIDE [1]: 102.67 MEQ/L
CHOLESTEROL [1]: 67.67 mg/dL
CREATINE PHOSPHOKINASE [1]: 270.33 u/L
CREATININE [1]: 0.34 mg/dL
GLUCOSE [1]: 140.67 mg/dL
LACTATE DEHYDROGENASE [1]: 278 u/L
LIPASE [1]: 10.67 u/L
PHOSPHORUS [1]: 13.13 mg/dL
POTASSIUM [1]: 6.68 MEQ/L
SODIUM [1]: 145.57 MEQ/L
TOTAL BILIRUBIN [1]: 0.2 mg/dL
TOTAL PROTEIN [1]: 6.03 G/DL
URIC ACID [1]: 1.6 mg/dL
ABSOLUTE BASOPHIL [2]: 0 CELLS/uL
ABSOLUTE EOSINOPHIL [2]: 108.33 CELLS/uL
ABSOLUTE LYMPHOCYTE [2]: 16413 CELLS/uL
ABSOLUTE MONOCYTE [2]: 47.67 CELLS/uL
ABSOLUTE SEGMENTED NEUTROPHIL [2]: 1431 CELLS/uL
BASOPHIL [2]: 0%
EOSINOPHIL [2]: 0.67%
ERYTHROCYTE COUNT [2]: 6.31 x10E6/uL
HEMATOCRIT [2]: 40.5%
HEMOGLOBIN [2]: 14.57 G/DL
LEUKOCYTE COUNT [2]: 18 x10E3/uL
LYMPHOCYTE [2]: 91%
MEAN CORPUSCULAR HEMOGLOBIN [2]: 23.2 pg
MEAN CORPUSCULAR HEMOGLOBIN CONCENTRATION [2]: 36 G/DL
MEAN CORPUSCULAR VOLUME [2]: 64.37 fL
MONOCYTE [2]: 0.33%
NEUTROPHIL [2]: 8%
NUCLEATED RED BLOOD CELLS [2]: 0 /100WBC
PLATELET COUNT [2]: 1228.67 x10E3/uL
ALANINE AMINOTRANSFERASE [2]: 84 u/L
ALBUMIN [2]: 4.57 G/DL
ALKALINE PHOSPHATASE [2]: 402 u/L
ASPARTATE AMINOTRANSFERASE [2]: 97.33 u/L
BLOOD UREA NITROGEN [2]: 17 mg/dL
CARBON DIOXIDE [2]: 27.33 mmol/L
CHLORIDE [2]: 101 MEQ/L
CHOLESTEROL [2]: 85 mg/dL
CREATINE PHOSPHOKINASE [2]: 304.67 u/L
CREATININE [2]: 0.23 mg/dL
GLUCOSE [2]: 150.67 mg/dL
LACTATE DEHYDROGENASE [2]: 174.67 u/L
LIPASE [2]: 11 u/L
PHOSPHORUS [2]: 10.23 mg/dL
POTASSIUM [2]: 6.7 MEQ/L
SODIUM [2]: 143.83 MEQ/L
TOTAL BILIRUBIN [2]: 0.2 mg/dL
TOTAL PROTEIN [2]: 6.17 G/DL
URIC ACID [2]: 1.8 mg/dL
ABSOLUTE BASOPHIL [3]: 0 CELLS/uL
ABSOLUTE EOSINOPHIL [3]: 45.33 CELLS/uL
ABSOLUTE LYMPHOCYTE [3]: 12211.67 CELLS/uL
ABSOLUTE MONOCYTE [3]: 352 CELLS/uL
ABSOLUTE SEGMENTED NEUTROPHIL [3]: 1824.33 CELLS/uL
BASOPHIL [3]: 0%
EOSINOPHIL [3]: 0.33%
ERYTHROCYTE COUNT [3]: 5.73 x10E6/uL
HEMATOCRIT [3]: 36.63%
HEMOGLOBIN [3]: 13.6 G/DL
LEUKOCYTE COUNT [3]: 14.43 x10E3/uL
LYMPHOCYTE [3]: 85.33%
MEAN CORPUSCULAR HEMOGLOBIN [3]: 23.77 pg
MEAN CORPUSCULAR HEMOGLOBIN CONCENTRATION [3]: 37.13 G/DL
MEAN CORPUSCULAR VOLUME [3]: 63.93 fL
MONOCYTE [3]: 2.33%
NEUTROPHIL [3]: 12%
NUCLEATED RED BLOOD CELLS [3]: 0 /100WBC
PLATELET COUNT [3]: 1227.33 x10E3/uL
ALANINE AMINOTRANSFERASE [3]: 71.67 u/L
ALBUMIN [3]: 4.53 G/DL
ALKALINE PHOSPHATASE [3]: 405.67 u/L
ASPARTATE AMINOTRANSFERASE [3]: 97 u/L
BLOOD UREA NITROGEN [3]: 18 mg/dL
CARBON DIOXIDE [3]: 28.67 mmol/L
CHLORIDE [3]: 101.67 MEQ/L
CHOLESTEROL [3]: 92 mg/dL
CREATINE PHOSPHOKINASE [3]: 216.33 u/L
CREATININE [3]: 0.2 mg/dL
GLUCOSE [3]: 160.33 mg/dL
LACTATE DEHYDROGENASE [3]: 82 u/L
LIPASE [3]: 11 u/L
PHOSPHORUS [3]: 10.6 mg/dL
POTASSIUM [3]: 5.82 MEQ/L
SODIUM [3]: 147.1 MEQ/L
TOTAL BILIRUBIN [3]: 0.2 mg/dL
TOTAL PROTEIN [3]: 6.33 G/DL
URIC ACID [3]: 1.3 mg/dL
